Values quoted from earlier work as cited in US6419954B1, “Tablets and methods for modified release of hydrophilic and other active agents” (Yamanouchi Pharmaceutical Co., Ltd., priority 2000, dated 2002).
Where a name gives a salt, the structure may show the parent alone. Read-outs that look alike come from different tables or passages of the source.

Conditions: at 25° C.

For `CC1OC2(CS1)CN1CCC2CC1` (racemic) [Cevimeline HCl, (+/−)-cis-2-methylspiro [1,3-oxathiolane-5,3′-quinuclidine]hydrochloride, hemihydrate], which water solubility (hemihydrate) is on record?
The water solubility was “about 766 mg/ml”.

And the water solubility (listed as SNI-2011, hemihydrate)?
Its water solubility is “about 1,400 mg/ml”.
